Results: patent US8536207B2, “Method for treating a keratoconjunctival disorder” (Santen Pharmaceutical Co., Ltd., priority 2005, dated 2013)

What was measured:
[1] = system: corneal damage in rats in which the exorbital lacrimal gland was removed; experiment: Test for therapeutic effect on corneal damage using rats in which the exorbital lacrimal gland was removed; type: in vivo, male SD rats; details: for Improvement ratio (%) of corneal damage: fluorescein staining score vs saline control
Procedure: 1. Test for Therapeutic Effect on Corneal Damage Using Rats in which the Exorbital Lacrimal Gland was Removed
Using male SD rats, corneal disorder models were produced in accordance with the method of Fujihara et al. (Invest. Ophthalmol. Vis. Sci. 42 (1): 96-100 (2001)). After the production of the corneal disorder models, the improvement ratio of corneal damage was evaluated by a method (Journal of the eye 21 (1): 87-90 (2004)) modified from the method of Miyata et al. (Japanese Review of Clinical Ophthalmology 48 (2): 183-188 (1994)).
Male SD rats were systemically anesthetized by an administration of Nembutal. Subsequently, the exorbital lacrimal gland of each rat was removed and a corneal damage was induced over a period of 2 months.
A physiological saline solution containing ebselen (25 μM) was instilled into both eyes 6 times a day for 14 days (one group consisting of 8 animals).
A physiological saline solution containing edaravone (200 μM) was instilled into both eyes 6 times a day for 14 days (one group consisting of 8 animals).
A physiological saline solution containing α-lipoic acid (200 μM) was instilled into both eyes 6 times a day for 14 days (one group consisting of 8 animals).
In a control group, physiological saline was instilled into both eyes 6 times a day for 14 days (one group consisting of 8 animals)
Fourteen days after the start of instillation, the damaged parts of the cornea were stained with fluorescein. For each of the upper, middle and lower parts of the cornea, the degree of fluorescein staining was evaluated by scoring according to the criteria shown below and the improvement ratio of corneal damage was calculated from the mean value of the total scores for each of the above-mentioned parts.
1: Scattered staining (punctate staining being separated)
2: Moderate staining (a part of punctate staining being adjacent)
3: Heavy staining (punctate staining being barely separated)
Incidentally, intermediate values (at intervals of 0.5) were set between the respective scores.
By taking the mean value of the scores for the control group (physiological saline) as a standard (improvement ratio: 0%) and according to the calculation equation shown below, the improvement ratios for the ebselen (25 μM) administration group and the edaravone (200 μM) administration group and α-lipoic acid (200 μM) administration group were calculated, respectively, which are shown in Table 1. Incidentally, the mean value of the scores is a mean of those of 8 cases in each group. Improvement ratio (%)={(control)−(administered compound)}/damage degree×100 Damage degree=(control)−(normal eye)

[2] = system: corneal damage in senescence-accelerated mouse model P10 (SAMP10); experiment: Pharmacological test using SAMP10 (corneal damage, fluorescein staining); type: in vivo; details: for Score of fluorescein staining: mean±standard error, maximum 9 points
Procedure: 2. Pharmacological Test Using SAMP10
Using senescence-accelerated mouse model P10 (hereinafter referred to as SAMP10), an effect of ebselen on a corneal damage was evaluated in accordance with the method of Hirai, Shibagaki et al. (JP-A-2006-104913). Incidentally, as a control animal, SAMR1 with normal senescence was used.
SAMP10 develops a corneal disorder with aging. Accordingly, a corneal damage of female SAMP10 at 16 weeks of age (before a change caused by aging is observed) was evaluated, and then, administration of an ebselen solution or its vehicle was started. At 8 weeks after the start of administration (at 24 weeks of age), the same evaluation was carried out again. In the same manner, a corneal damage of female SAMR1 at 16 weeks of age was evaluated, and thereafter, administration of the above-mentioned vehicle was started. Then, at 8 weeks after the start of administration (at 24 weeks of age), the same evaluation was carried out again.
Ebselen suspensions obtained by suspending it in a 1% (w/v) methyl cellulose aqueous solution (prepared by dissolving methyl cellulose in ultrapure water) at a concentration of 0.45 mg/mL and 4.5 mg/mL respectively were orally administered to female SAMP10 once a day at a dose of 6.67 μL per g of body weight of mouse. The both administration groups were determined to be a 3 mg/kg group and a 30 mg/kg group, respectively. The administration was carried out 5 days a week (Mon, Tue, Wed, Thu, Fri) over a period of 8 weeks. As a control, a 1% (w/v) methyl cellulose aqueous solution was orally administered to SAMP10 in the same manner at a dose of 6.67 μL per g of body weight of mouse. Further, to the control animal, female SAMR1, a 1% (w/v) methyl cellulose aqueous solution was orally administered in the same manner. Incidentally, the number of animals in each group of SAMP10 is 22 eyes (11 mice), and the number of SAMR1 is 16 eyes (8 mice).
The damaged parts of the cornea of SAMP10 and SAMR1 were stained with fluorescein immediately before and at 8 weeks after the start of administration. For each of the upper, middle and lower parts of the cornea, the degree of fluorescein staining was evaluated by scoring according to the evaluation criteria described in “1. Test for therapeutic effect on corneal damage using rat models in which the exorbital lacrimal gland was removed”, and the scoring of the degree of corneal damage (a maximum score of 9 points) was carried out by obtaining the total scores for each of the above-mentioned parts.
Incidentally, the scores in the table are expressed as mean±standard error in each group.

[3] = 200 μM in physiological saline instilled into both eyes 6 times a day for 14 days

Structure (SMILES)	Improvement ratio (%) of corneal damage [1, 3]	Improvement ratio (%) of corneal damage ([1]; 25 μM in physiological saline instilled into both eyes 6 times a day for 14 days)	Improvement ratio compared with edaravone and α-lipoic acid ([1]; ebselen 25 μM vs comparators 200 μM, instillation for 14 days)	Staining score compared with the vehicle administration group of SAMP10 ([2]; 3 mg/kg and 30 mg/kg groups, 24 weeks of age, Dunnett's test p < 0.05)	Score of fluorescein staining ([2]; SAMP10, 3 mg/kg group, 16 weeks of age (immediately before start of administration))	Score of fluorescein staining ([2]; SAMP10, 3 mg/kg oral once a day, 5 days a week for 8 weeks, 24 weeks of age)	Score of fluorescein staining ([2]; SAMP10, 30 mg/kg group, 16 weeks of age (immediately before start of administration))	Score of fluorescein staining ([2]; SAMP10, 30 mg/kg oral once a day, 5 days a week for 8 weeks, 24 weeks of age)
CC1=NN(c2ccccc2)C(=O)C1 [Edaravone, 3-methyl-1-phenyl-2-pyrazolin-5-one]	36.9%	–	–	–	–	–	–	–
O=c1c2ccccc2[se]n1-c1ccccc1 [Ebselen, 2-phenyl-1,2-benzisoselenazol-3(2H)-one]	–	76.5%	more than twice as high	significantly decreased	2.61 ± 0.38	2.95 ± 0.45	2.45 ± 0.30	2.68 ± 0.33
O=C(O)CCCCC1CCSS1 (stereo in doubt) [α-Lipoic acid, (3R)-1,2-dithiolane-3-pentanoic acid]	30.8%	–	–	–	–	–	–	–
